Laboratory results from patent publication US20240041959A1, “NOVEL MODIFIED REOVIRUS AND USE THEREOF” (priority 2020, published 2024).

Legend:
[1] = system: normal cell line HS27; assay: WST cell viability in normal cell line (Example 3); type: cell-based, human; conditions: HS27, 3 days, FIG. 1A
Experimental: (§1) The cell lines used in this example are as follows: normal cell line HS27, and paclitaxel-resistant cancer cell lines Skmel28, A375, and B16F10. Each cell line was cultured in DMEM medium containing 10% fetal bovine serum and seeded at a density of 3,000 cells/well in a 96-well plate, followed by incubation at 37° C. and 5% CO2 for 24 hours. RP116 was serially diluted at concentrations ranging from 0.008 to 1,000 MOI (Multiplicity of Infection) and treated to the prepared cells, and further incubated for three days at 37° C. and 5% CO2. The number of surviving cells was measured using a WST kit (DoGen, Seoul, South Korea, Cat No: EZ-3000) according to the manufacturer's instructions.

[2] = system: paclitaxel-resistant cancer cell lines Skmel28, A375, and B16F10; assay: WST cell viability in paclitaxel-resistant cancer cell lines (Example 3); type: cell-based; conditions: even at high concentrations of 100 nM or more, FIG. 1B
Experimental: as §1, with “RP116 was serially diluted at concentrations ranging from 0.008 to 1,000 MOI (Multiplicity of Infection) and treated to the prepared cells, and further incubated for three days at 37° C. and 5% CO2.” left out

## CC(=O)O[C@H]1C(=O)[C@@]2(C)[C@H]([C@H](OC(=O)c3ccccc3)[C@]3(O)C[C@H](OC(=O)[C@H](O)[C@@H](NC(=O)c4ccccc4)c4ccccc4)C(C)=C1C3(C)C)[C@]1(OC(C)=O)CO[C@@H]1C[C@@H]2O [paclitaxel]
[1]
  cell viability of normal cell line vs control group: cell viability decreased in a concentration-dependent manner
[2]
  cell viability of paclitaxel-resistant cancer cells vs control group: no significant difference in cell viability compared to the control group
